Reference: US20240325358A1, “PHARMACEUTICAL COMPOSITION FOR PREVENTION OR TREATMENT OF ALLERGIC SKIN DISEASE OR SKIN PRURITUS” (CUePEAK BIO. Co., Ltd., priority 2023, published 2024)

Tests used:
[1] = tested on: normal human epidermal keratinocytes (NHEK); experiment: Cell differentiation degree in normal human epidermal keratinocytes; type: cell-based; conditions: 24 hours of treatment, compared with untreated control group, FIG. 2
Description: (§1) • A human epidermal cell line (normal human epidermal keratinocyte; NHEK) is a human fetal transdermal cell line and was used after being distributed from ATCC.
(§2) It was a cell obtained from primary culture and was used for confirming biochemical changes within the cell by ABT-751 or TN-16 under normal conditions, not disease conditions. • Experimental animal: Since a hos:HR-1(hairless) mouse has no hair in skin disease research, it allows skin-related research to be performed by directly applying a drug on skin or inducing skin diseases by chemical or biological allergen.
The normal human epidermal keratinocytes (NHEK) in culture was treated with ABT-751 and TN-16, respectively to measure the expression amount of filaggrin and confirm a change in cell differentiation degree.
NHEK was treated with ABT-751 and TN-16 by concentrations of 0, 0.5, 1.0, and 2.5 μM, respectively, and after 24 hours of treatment, the expression amount of filaggrin and the cell differentiation degree were observed.

filaggrin [2] = experiment: Expression amount of filaggrin in NHEK by RNA extraction and RT-qPCR; type: cell-based, human; conditions: NHEK, 0, 0.5, 1.0 and 2.5 μM, after 24 hours of treatment; FIGS. 1A and 1B
Description: as §1, §2
A normal human epidermal keratinocyte (NHEK) on which ABT-751, TN-16, or a control sample was applied, or a mouse skin tissue was dissolved using a TRI reagent (MRC), and then RNA in cells was extracted using Rneasy Mini Kit (Qiagen).
The extracted RNA was reverse-transcribed with ImProm-II TM Reverse Transcription Kit (Promega) to synthesize cDNA, and then an amount of filaggrin was measured by a quantitative PCR (qPCR) through Real-Time PCR Detection System (Bio-Rad, CFX96).
The normal human epidermal keratinocytes (NHEK) in culture was treated with ABT-751 and TN-16, respectively to measure the expression amount of filaggrin and confirm a change in cell differentiation degree. […]

filaggrin [3] = experiment: Expression amount of filaggrin in HR-1 mouse back skin tissue (RT-qPCR and Western blot); type: in vivo, hos:HR-1 mouse; conditions: HR-1 mouse back skin, 1, 2 and 4% formulations applied once a day, vs 0% formulation control; RNA and protein; FIGS. 3A to 3C
Description: as §2
In addition, it has a skin thickness of about 0.4 mm at 8 to 10 weeks of age, which is similar to the skin of a human, and is useful for research on pathogenesis mechanism of skin diseases and confirmation of biochemical changes in skin tissue. […]
The extracted RNA was reverse-transcribed with ImProm-II TM Reverse Transcription Kit (Promega) to synthesize cDNA, and then an amount of filaggrin was measured by a quantitative PCR (qPCR) through Real-Time PCR Detection System (Bio-Rad, CFX96). […]
The thin film was reacted with an ECL solution (Thermo Fisher), and the protein after the reaction was detected using a luminescence reaction measuring instrument (Fusion Solo, Vilber). […]
Each of RNA and protein was extracted from the back skin tissue on which ABT-751 or TN-16 was applied, respectively, by the method of the text example and the expression amount of filaggrin was measured, and the results are shown in FIG. 3.

HR-1 mouse skin = experiment: Skin barrier function test (skin moisture loss, skin barrier index) in HR-1 mouse; type: in vivo, hos:HR-1 mouse; conditions: 4% formulation applied on back skin once a day, vs 0% formulation, effect grew with days of application, FIG. 4
Description: as §2
In addition, it has a skin thickness of about 0.4 mm at 8 to 10 weeks of age, which is similar to the skin of a human, and is useful for research on pathogenesis mechanism of skin diseases and confirmation of biochemical changes in skin tissue.
2 hours after applying ABT-751 or TN-16, skin moisture loss, a skin barrier index, and a comprehensive index on the application area were measured for 3 weeks with a precision measuring instrument (Courage-khazaka electronic GmbH, MPA10), and recorded.
ABT-751 and TN-16 of 0, 1, 2, and 4% formulations were applied on the back skin of a hairless hos:HR-1 mouse (hereinafter, referred to as HR-1 mouse) in the same amount once a day for 3 weeks, respectively.
After each application, skin moisture loss and a skin barrier index were measured by the method of the test example.
After applying the control group (0% formulation ABT-751 or 0% formulation TN-16) and ABT-751 or TN-16 of a 4% formulation, respectively, skin moisture loss and a skin barrier index were measured, and the results are shown in FIG. 4.

SMILES | cell differentiation degree [1] | expression amount of filaggrin (filaggrin [2]) | expression amount of filaggrin in the skin tissue (filaggrin [3]) | skin barrier index (HR-1 mouse skin) | skin moisture loss (HR-1 mouse skin)
COc1ccc(S(=O)(=O)Nc2cccnc2Nc2ccc(O)cc2)cc1 [ABT-751, N-[2-[(4-Hydroxyphenyl)amino]pyridin-3-yl]-4-methoxybenzenesulfonamide] | significantly increased | increased depending on the ABT-751 and TN-16 treatment concentrations | increased in a concentration-dependent manner | increased | decreased
C/C(Nc1ccccc1)=C1/C(=O)NC(Cc2ccccc2)C1=O (stereo not drawn) [TN-16, 3-[1-(phenylamino)ethylidene]-5-(phenylmethyl)-2,4-pyrrolidinedione] | – | increased depending on the ABT-751 and TN-16 treatment concentrations | increased in a concentration-dependent manner | increased | decreased
